Reference: PMC6026185 (Scientific Reports, 2018)

Key:
[1] = biological target: T1, hNKCC1B (Homo sapiens, UniProt P55011); experiment: 86Rb+ uptake in hNKCC1B-expressing Xenopus laevis oocytes; type: cell-based; settings: 5 min, corrected for uninjected oocytes, median and range of 3–7 experiments
T1 construct: expressed in transfected cells; host or cells: Xenopus laevis oocytes injected with cRNA (pXOOM vector)
T1 sequence (P55011 1-1196 isoform P55011-3): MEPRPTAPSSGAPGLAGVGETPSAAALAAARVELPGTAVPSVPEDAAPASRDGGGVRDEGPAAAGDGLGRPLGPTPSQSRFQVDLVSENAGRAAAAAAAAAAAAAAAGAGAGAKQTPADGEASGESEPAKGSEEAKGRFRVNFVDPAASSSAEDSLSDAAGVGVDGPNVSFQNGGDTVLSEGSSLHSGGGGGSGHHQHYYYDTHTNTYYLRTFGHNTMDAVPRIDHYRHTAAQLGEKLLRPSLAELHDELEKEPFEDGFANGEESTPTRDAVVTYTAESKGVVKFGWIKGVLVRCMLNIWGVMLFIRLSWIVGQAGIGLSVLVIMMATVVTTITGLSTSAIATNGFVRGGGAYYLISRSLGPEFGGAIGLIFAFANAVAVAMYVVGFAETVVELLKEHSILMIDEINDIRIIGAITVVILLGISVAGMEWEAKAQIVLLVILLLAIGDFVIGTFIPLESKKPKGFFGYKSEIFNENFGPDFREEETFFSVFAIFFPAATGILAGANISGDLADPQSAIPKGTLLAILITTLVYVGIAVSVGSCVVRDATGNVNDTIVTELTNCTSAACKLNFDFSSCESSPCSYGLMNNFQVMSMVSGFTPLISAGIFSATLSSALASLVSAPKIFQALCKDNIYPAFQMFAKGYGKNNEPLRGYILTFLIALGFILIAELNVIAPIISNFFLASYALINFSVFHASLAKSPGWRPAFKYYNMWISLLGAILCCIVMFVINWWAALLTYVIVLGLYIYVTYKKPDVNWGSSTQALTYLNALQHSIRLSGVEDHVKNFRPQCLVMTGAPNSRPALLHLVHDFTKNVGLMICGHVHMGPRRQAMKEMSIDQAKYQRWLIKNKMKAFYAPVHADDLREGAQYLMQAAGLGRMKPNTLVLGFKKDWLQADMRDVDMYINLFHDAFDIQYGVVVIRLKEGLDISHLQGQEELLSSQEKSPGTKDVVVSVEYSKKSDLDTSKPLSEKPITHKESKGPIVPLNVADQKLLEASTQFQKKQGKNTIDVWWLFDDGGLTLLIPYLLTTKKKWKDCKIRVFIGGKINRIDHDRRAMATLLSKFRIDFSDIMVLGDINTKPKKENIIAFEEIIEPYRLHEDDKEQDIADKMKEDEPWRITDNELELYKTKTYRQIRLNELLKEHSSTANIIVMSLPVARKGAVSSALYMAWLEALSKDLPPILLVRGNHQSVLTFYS
Source text: Human NKCC1A (NM_001046, obtained from Prof. Biff Forbush, Yale School of Medicine, CT) and NKCC1B (prepared by site-directed mutagenesis from hNKCC1A as described below) were subcloned into the oocytes expression vector pXOOM, linearized downstream from the poly-A segment, and in vitro transcribed using T7-mMessage Machine according to manufacturer’s instructions (Ambion, Austin, TX). cRNA was then extracted with MEGAclear (Ambion, Austin, TX) and micro-injected into defolliculated Xenopus laevis oocytes (25 ng RNA/oocyte). The oocytes were kept in Kulori medium (in mM: 90 NaCl, 1 KCl, 1 CaCl2, 1 MgCl2, 5 Hepes, pH 7.4, 182 mOsm) for 5–6 days at 19 °C prior to experiments.
To activate NKCC1A and NKCC1B prior to the ^86Rb^+ uptake measurements aimed at measuring NKCC-mediated fluxes, hNKCC1A- or hNKCC1B-expressing oocytes or uninjected control oocytes (4–13 oocytes per well) were pre-incubated for 30 min at room temperature in a K^+-free solution (containing in mM: 5 choline chloride, 95 NaCl, 1 MgCl2, 1 CaCl2, 10 Hepes, pH 7.4, 207 mOsm), which causes shrinkage of the oocyte and thus activation of NKCC1A[22]. […]
Significance of differences in transport activity of hNKCC1A or hNKCC1B expressing oocytes vs. uninjected oocytes were analyzed by the Kruskal-Wallis test followed by Dunn’s multiple comparisons test. […]

[2] = test system: NKCC1; settings: Activated state; isoforms not differentiated; turkey erythrocytes; mIMCD-K2 cells; chick cardiac cells; winter flounder intestine; rat erythrocytes and thymocytes; ref Palfrey et al.[48]; Schlatter et al.[23]; Frelin et al.[49]; O’Grady et al.[50]; Glanville et al.[51]; Hannaert et al.[52]; cited from earlier work
[3] = test system: hNKCC2 isoform A; settings: Xenopus oocytes; ref Payne et al.[57]; Isenring et al.[58]; Plata et al.[59]; Carota et al.[56]; Lykke et al.[60]; Lykke et al.[29]; read-out: IC50 (µM) NKCC2 (hA); cited from earlier work
[4] = test system: mNKCC2 isoform B; set-up: method as in ref Payne et al.[57]; Isenring et al.[58]; Plata et al.[59]; Carota et al.[56]; Lykke et al.[60]; Lykke et al.[29]; settings: Xenopus oocytes; ref Payne et al.[57]; Isenring et al.[58]; Plata et al.[59]; Carota et al.[56]; Lykke et al.[60]; Lykke et al.[29]; read-out: IC50 (µM) NKCC2 (mB); cited from earlier work
[5] = ref [9],[10]; cited from earlier work
[6] = set-up: method as in DrugBank database; settings: ref DrugBank database; cited from earlier work

CCCCNc1cc(C(=O)O)cc(S(N)(=O)=O)c1Oc1ccccc1 [Bumetanide]
IC50 [1]: 0.842 µM | IC50 [2]: 0.25 to 0.6 µM | IC50 [3]: 0.54 to 4 µM | IC50 [4]: 0.6 µM | plasma protein binding [5]: > 95% | Lipophilicity (logP) [6]: 2.7
